From patent publication US12234258B2, “Timosaponin compounds” (priority 2012, dated 2025)
Like-named read-outs stand apart in the source and are kept apart here.

What was measured:
Assay type in all cases: cell-based
[1] = system: Aβ1-42 production in SweAPP N2A cells (N2A-APPswe); assay: Aβ1-42 ELISA of conditioned medium of SweAPP N2A cells
Method: Neuro-2A cells expressing Swedish mutants of (“SweAPP N2A cells”) was cultured in minimal essential medium with glutamine (2 mM), pyruvate (2 mM) and fetal bovine serum (10%). Cells were seeded at 6-well plate at 1×10^6 cells/mL and grown overnight. The medium was replaced.
Conditioned medium was diluted with 2 part volume of ELISA diluents. Aβ1-42 concentrations were determined by using human Aβ1-42 ultrasensitive ELISA kit (manufactured by Invitrogen).
Cell culture: Neuro-2A cells expressing Swedish mutants of APP (N2A-APPswe) ENREF 12 was cultured in minimal essential medium with 2 mM glutamine, 2 mM pyruvate and 10% fetal bovine serum. Cells were seeded at 6-well plate at 1×10^6 cells/mL and grown for two days until confluence. The medium was replaced and the test compounds were added at indicated concentrations for 24 hr.

[2] = system: HeLa, human cervical carcinoma cells; assay: Growth of cancer cell lines: HeLa; settings: mean ± S.D., n = 3; read-out: IC50 against growth of HeLa
[3] = system: HepG2, human hepatoma cells; assay: Growth of cancer cell lines: HepG2; settings: mean ± S.D., n = 3; read-out: IC50 against growth of HepG2
[4] = system: NCI-H460, human non-small lung carcinoma cells; assay: Growth of cancer cell lines: NCI-H460; settings: mean ± S.D., n = 3; read-out: IC50 against growth of NCI-H460
[5] = system: Neuro-2A cells; assay: Neurite outgrowth of N2A cells; settings: FIG. 19; TAIII 5 μM, TAI 10 μM, SSG 25 μM, 18 hr, type III β-tubulin staining
Method: Immunofluorescence examination of neurite outgrowth: Neuro-2A cells were seeded at 1×10^5 cells per glass bottom dish. After treatment, cells were fixed with 4% paraformaldyde for 10 min, permeabilized with 0.1% Trition X-100, and then blocked with 1% BSA in PBS. The cells were incubated with monoclonal antibody raised against type III β-tubulin (Sigma) for 1 hr followed by Alexa488 conjugated secondary antibody. Neurite morphology was examined under fluorescence microscope.

[6] = system: SW480, human colon adenocarcinoma cells; assay: Growth of cancer cell lines: SW480; settings: mean ± S.D., n = 3; read-out: IC50 against growth of SW480
[7] = system: Aβ42, Aβ40 and Aβ38 in N2A-APPswe cells; assay: Aβ42, Aβ40 and Aβ38 profiles in conditioned medium by ELISA; settings: FIG. 18, 18 hr
Method: Aβ ELISA: Aβ concentrations in conditioned medium were assayed using ELISA kits for human Aβ40, human Aβ42 (ultrasensitive) (Invitrogen) and Aβ38 (MyBioSource).
Cells were treated with various concentrations of (TAIII/TAI/AA/TAV) and DMSO vehicle (C) for 18 hr. In part A of FIG. 18, the expression of full length (FL) and CTF (c99 and c83) in cell lysates and secreted APP (sAPPα and sAPPP) in the conditioned medium were examined by immunoblot using methods specified in Example 6. In part B of FIG. 18, the profiles of Aβ42, Aβ40 and Aβ38 in the conditioned medium were determined by ELISA using methods specified in Example 5.

[8] = system: Notch cleavage by γ-secretase in N2A-APPswe cells; assay: Notch cleavage by γ-secretase (NotchΔE/NICD immunoblot); settings: FIG. 20; at concentrations that effectively lower Aβ levels, 18 hr
Method: Immunoblot analysis: Cells were washed with phosphate buffered saline and lysed with buffer containing 50 mM Tris-Cl, pH 7.4, 150 mM NaCl, 1% Triton X-100 supplemented with protease inhibitors. Equal amount of proteins (30 μg) was resolved by 16.5% Tris-tricine gels and then transferred to nitrocellulose membrane with 0.2 µm pore size. For detection of secreted Aβ, sAPPα and sAPPβ, cells were treated with the timosaponins for 8 hr in complete medium which were then replaced with medium containing 0.1% FBS. After further incubation of 16 hr, 50 μL of the conditioned medium was mixed with SDS sample buffer and resolved accordingly. The membrane was blocked with Tris-buffered saline containing 0.1% TWEEN® 20 and 3% BSA and then incubated with primary antibodies at 4° C. overnight, followed with appropriate secondary antibodies for 2 hr. The primary antibodies were: APP c-terminal rabbit antibody (1:5000; Merck Bioscience) for detection of full length APP and APP-CTFs, mouse monoclonal 6E10 (Covance) for secreted Aβ and sAPPα, mouse monoclonal 6A1 (IBL) for sAPPβswe, ADAM-10 rabbit antibody (Millipore) and BACE1 rabbit antibody (Millipore). The immunoreactivities were detected using enhanced chemiluminescence reagents (GE Health care). […]

[9] = Table 4, N2A-APPswe cells, mean ± S.D, n ≥ 3, read-out: IC50 in lowering Aβ42 production
[10] = N2a-APPswe, read-out: IC50 in lowering Aβ42 production
[11] = Example 7, SweAPP N2A cells, Aβ1-42 ELISA, read-out: IC50, inhibition of Aβ production

**Q.** With `C[C@@H]1CC[C@@]2(OC1)O[C@H]1C[C@H]3[C@@H]4C[C@H](O)[C@H]5C[C@@H](O)CC[C@]5(C)[C@H]4CC[C@]3(C)[C@H]1[C@@H]2C` [5α-H, 6α-OH diosgenin] as the molecule, how does the IC50 [1, 9] read?
**A.** > 100 µM

**Q.** `C[C@H]1CC[C@@]2(OC1)O[C@H]1C[C@H]3[C@@H]4C[C@H](O)[C@H]5C[C@@H](O)CC[C@]5(C)[C@H]4CC[C@]3(C)[C@H]1[C@@H]2C` [5α-H, 6α-OH yamogenin] was tested. Which IC50 [1, 9] did it give?
**A.** > 100 µM

**Q.** Which IC50 [1, 9] does the source give for `C[C@@H]1CC[C@@]2(OC1)O[C@H]1C[C@H]3[C@@H]4C[C@@H](O)[C@@H]5C[C@@H](O)CC[C@]5(C)[C@H]4CC[C@]3(C)[C@H]1[C@@H]2C` [5β-H, 6β-OH diosgenin] here?
**A.** > 100 µM

**Q.** With `C[C@H]1CC[C@@]2(OC1)O[C@H]1C[C@H]3[C@@H]4C[C@@H](O)[C@@H]5C[C@@H](O)CC[C@]5(C)[C@H]4CC[C@]3(C)[C@H]1[C@@H]2C` [5β-H, 6β-OH yamogenin] as the molecule, how does the IC50 [1, 9] read?
**A.** 45 ± 4 µM

**Q.** With `C[C@H]1CC[C@@]2(OC1)O[C@H]1C[C@H]3[C@@H]4CC[C@@H]5C[C@@H](O[C@@H]6O[C@H](CO)[C@@H](O)[C@H](O)[C@H]6O)CC[C@]5(C)[C@H]4CC[C@]3(C)[C@H]1[C@@H]2C` [Asparagoside A] as the molecule, how does the IC50 [2] read?
**A.** 65.4 ± 20.9 µM

**Q.** What about the IC50 [1, 9] of the same molecule?
**A.** 6 ± 1.4 µM

**Q.** What about the IC50 [3] of the same molecule?
**A.** 7.72 ± 2.68 µM

**Q.** What about the IC50 [4] of the same molecule?
**A.** 14.1 ± 0.64 µM

**Q.** What about the Neurite outgrowth [5] of the same molecule?
**A.** significant extension and branching of neurites

**Q.** What about the IC50 [6] of the same molecule?
**A.** 15.6 ± 1.96 µM

**Q.** And the “Aβ profile (Aβ42 vs Aβ40 and Aβ38)” value [7]?
**A.** preferentially lower Aβ42 production

**Q.** Which IC50 [1, 9] does the source give for `C[C@@H]1CC[C@@]2(OC1)O[C@H]1C[C@H]3[C@@H]4CC=C5C[C@@H](O[C@@H]6O[C@H](CO)[C@H](O)[C@H](O)[C@H]6O)CC[C@]5(C)[C@H]4CC[C@]3(C)[C@H]1[C@@H]2C` [Capsicoside A3] here?
**A.** > 100 µM

**Q.** Which IC50 [1, 9] does the source give for `CC(CO)CCC1OC2CC3C4CCC5CC(O)CCC5(C)C4CCC3(C)C2C1C` (stereo not shown) [Dihydrosarsasapogenin] here?
**A.** > 100 µM

**Q.** `C[C@@H]1CC[C@@]2(OC1)O[C@H]1C[C@H]3[C@@H]4CC=C5C[C@@H](O)CC[C@]5(C)[C@H]4CC[C@]3(C)[C@H]1[C@@H]2C` [Diosgenin] was tested. Which IC50 [1, 9] did it give?
**A.** > 100 µM

**Q.** With `C[C@H]1CC[C@@]2(OC1)O[C@H]1C[C@H]3[C@@H]4CC[C@@H]5C[C@H](O)CC[C@]5(C)[C@H]4CC[C@]3(C)[C@H]1[C@@H]2C` [Episarsasapogenin] as the molecule, how does the IC50 [1, 9] read?
**A.** > 100 µM

**Q.** For `CC(C)[C@@H](C)/C=C/[C@@H](C)[C@H]1CC[C@H]2C3=CC=C4C[C@@H](O)CC[C@]4(C)[C@H]3CC[C@]12C` [Ergosterol, reference compound], which IC50 [1, 9] is on record?
**A.** > 100 µM

**Q.** `C[C@H]1CC[C@@]2(OC1)O[C@H]1C[C@H]3[C@@H]4CC[C@@H]5C[C@@H](OCC(=O)O)CC[C@]5(C)[C@H]4CC[C@]3(C)[C@H]1[C@@H]2C` [Ethereal SSG] was tested. Which IC50 [1, 10] did it give?
**A.** 27 ± 8 µM

**Q.** What about the “Notch processing (NotchΔE and NICD)” value [8] of the same molecule?
**A.** did not affect the Notch processing

**Q.** How did the IC50 [1, 10] turn out when `C[C@H]1CC[C@@]2(OC1)O[C@H]1C[C@H]3[C@@H]4CC[C@H]5C[C@@H](O)CC[C@]5(C)[C@H]4CC[C@]3(C)[C@H]1[C@@H]2C` [Neotigogenin] was run?
**A.** > 100 µM

**Q.** With `C[C@H]1CC[C@@]2(OC1)O[C@H]1C[C@H]3[C@@H]4CC[C@@H]5C[C@@H](O)CC[C@]5(C)[C@H]4CC[C@]3(C)[C@H]1[C@@H]2C` [Sarsasapogenin] as the molecule, how does the IC50 [2] read?
**A.** 50 ± 2 µM

**Q.** What about the IC50 [1, 11] of the same molecule?
**A.** ~20 µM

**Q.** And the IC50 [1, 9]?
**A.** 53 ± 9 µM

**Q.** And the IC50 [3]?
**A.** 32.6 ± 4.58 µM

**Q.** What about the IC50 [4] of the same molecule?
**A.** 19.2 ± 0.45 µM

**Q.** What about the Neurite outgrowth [5] of the same molecule?
**A.** significant extension and branching of neurites

**Q.** What about the “Notch processing (NotchΔE and NICD)” value [8] of the same molecule?
**A.** did not affect the Notch processing

**Q.** What about the IC50 [6] of the same molecule?
**A.** 29.4 ± 5.09 µM

**Q.** Which IC50 [1, 9] does the source give for `C[C@@H]1CC[C@@]2(OC1)O[C@H]1C[C@H]3[C@@H]4CC[C@@H]5CC(=O)CC[C@]5(C)[C@H]4CC[C@]3(C)[C@H]1[C@@H]2C` [Sarsasapogenone] here?
**A.** 50 ± 5 µM

**Q.** `C[C@@H]1CC[C@@]2(OC1)O[C@H]1C[C@H]3[C@@H]4CC[C@@H]5C[C@@H](O)CC[C@]5(C)[C@H]4CC[C@]3(C)[C@H]1[C@@H]2C` [Smilagenin] was tested. Which IC50 [1, 10] did it give?
**A.** > 100 µM

**Q.** For `C[C@@H]1CC[C@@]2(OC1)O[C@H]1C[C@H]3[C@@H]4CC[C@H]5C[C@@H](O)CC[C@]5(C)[C@H]4CC[C@]3(C)[C@H]1[C@@H]2C` [Tigogenin], which IC50 [1, 10] is on record?
**A.** > 100 µM

**Q.** Which results are given for `C[C@H]1CC[C@@]2(OC1)O[C@H]1C[C@H]3[C@@H]4CC[C@@H]5C[C@@H](O[C@@H]6O[C@H](CO)[C@H](O)[C@H](O)[C@H]6O)CC[C@]5(C)[C@H]4CC[C@]3(C)[C@H]1[C@@H]2C` [Timosaponin AI]?
**A.** IC50 [2]: 44.5 ± 1.15 µM; IC50 [1, 11]: ~20 µM; IC50 ([1]; Example 9, SweAPP N2A cells, Aβ1-42 ELISA, read-out: ICS50, inhibitor of Aβ production): 5 µM; IC50 [1, 9]: 6.1 ± 2.8 µM; IC50 [3]: 10.5 ± 4.64 µM; IC50 [4]: 10.2 ± 4.64 µM; Neurite outgrowth [5]: significant extension and branching of neurites; IC50 [6]: 12.1 ± 3.83 µM; Aβ profile (Aβ42 vs Aβ40 and Aβ38) [7]: preferentially lower Aβ42 production

**Q.** For `C[C@H]1CC[C@@]2(OC1)O[C@H]1C[C@H]3[C@@H]4CC[C@@H]5C[C@@H](O[C@@H]6O[C@H](CO)[C@H](O[C@@H]7O[C@H](CO)[C@@H](O)[C@H](O)[C@H]7O)[C@H](O)[C@H]6O[C@@H]6O[C@H](CO)[C@@H](O)[C@H](O)[C@H]6O)CC[C@]5(C)[C@H]4CC[C@]3(C)[C@H]1[C@@H]2C` [Timosaponin AV], which IC50 [2] is on record?
**A.** 21.6 ± 5.2 µM

**Q.** And the IC50 [1, 9]?
**A.** 4.2 ± 1.2 µM

**Q.** And the IC50 [3]?
**A.** 17.4 ± 4.29 µM

**Q.** What about the IC50 [4] of the same molecule?
**A.** 20 ± 0.71 µM

**Q.** And the IC50 [6]?
**A.** 21.7 ± 2.27 µM

**Q.** And the “Aβ profile (Aβ42 vs Aβ40 and Aβ38)” value [7]?
**A.** preferentially lower Aβ42 production

**Q.** How did the IC50 [2] turn out when `C[C@@H](CC[C@@]1(O)O[C@H]2C[C@H]3[C@@H]4CC[C@@H]5C[C@@H](O[C@@H]6O[C@H](CO)[C@H](O)[C@H](O)[C@H]6O[C@@H]6O[C@H](CO)[C@@H](O)[C@H](O)[C@H]6O)CC[C@]5(C)[C@H]4CC[C@]3(C)[C@H]2[C@@H]1C)CO[C@@H]1O[C@H](CO)[C@@H](O)[C@H](O)[C@H]1O` [Timosaponin BII] was run?
**A.** > 100 µM

**Q.** What about the IC50 [3] of the same molecule?
**A.** > 100 µM

**Q.** What about the IC50 [4] of the same molecule?
**A.** > 100 µM

**Q.** What about the IC50 [6] of the same molecule?
**A.** > 100 µM

**Q.** What does the source list for `CO[C@]1(CC[C@H](C)CO[C@@H]2O[C@H](CO)[C@@H](O)[C@H](O)[C@H]2O)O[C@H]2C[C@H]3[C@@H]4CC[C@@H]5C[C@@H](O[C@@H]6O[C@H](CO)[C@H](O)[C@H](O)[C@H]6O[C@@H]6O[C@H](CO)[C@@H](O)[C@H](O)[C@H]6O)CC[C@]5(C)[C@H]4CC[C@]3(C)[C@H]2[C@@H]1C` [Timosaponin BI]?
**A.** IC50 [2]: > 100 µM; IC50 [1, 9]: > 100 µM; IC50 [3]: > 100 µM; IC50 [4]: > 100 µM; IC50 [6]: > 100 µM

**Q.** How did the IC50 [1, 9] turn out when `C[C@H]1CC[C@@]2(OC1)O[C@H]1C[C@H]3[C@@H]4CC=C5C[C@@H](O)CC[C@]5(C)[C@H]4CC[C@]3(C)[C@H]1[C@@H]2C` [Yamogenin] was run?
**A.** > 100 µM
